Measurements reported in patent publication US7652037B2, “Methods of lowering lipid levels in a mammal” (City Of Hope, priority 2003, dated 2010).
Marks after values point to notes of the source that are not given here.

Legend:
STZ-Diabetic Rats [1] = experiment: Body weight and glycemia in STZ-diabetic and control rats (Example 1); format: in vivo, rat; conditions: for Body Weight / HbA1c / Plasma Glucose: mean ± SD; for effect on plasma glucose and glycated hemoglobin / weight compared to the diabetic control rats: diabetic rats; for weight compared to the diabetic control rats: only LR-90 statistically significant
Procedure: (§1) Male Sprague-Dawley rats (about 175 to 200 g) were adapted for one week prior to treatment, then rendered diabetic by intra-peritoneal injection of STZ (65 mg/kg in citrate buffer, pH 4.5) after an overnight fast. Control (non-diabetic) animals were injected with the buffer only. Diabetes was confirmed by measuring the plasma glucose concentrations 7 days after Streptozotocin (STZ)-injection. Only animals with a plasma glucose concentration greater than 20 mmol were classified as diabetic and used in the study. These diabetic rats were divided randomly into an untreated diabetic control group and a diabetic treatment group. The treatment group received an LR compound at 50 mg/l in their drinking water throughout the duration of the study (32 weeks for LR-90; 30 weeks for LR-9 and LR-74). All animals were housed individually and were given free access to food and water.
(§2) Blood (from the tail vein) and urine samples were collected from rats for glycemic control analysis and albuminuria measurements. Glycemia was monitored every 8 weeks by measuring plasma glucose and glycated hemoglobin. Plasma or serum also was tested for total cholesterol and total triglycerides. Progression of renal dysfunction was assessed by measuring urinary albumin to creatinine ratio (UA/Cr) and serum or plasma creatinine. For measurement of urinary albumin and creatinine concentrations, rats were housed in metabolic cages for 24 hours and urine was collected in a collection beaker with several drops of toluene to inhibit microbial growth.
At the end of study, the rats were weighed and anaesthetized with isoflourane and blood was drawn by heart puncture and transferred into heparinized and non-heparinized vacutainer tubes on ice. These blood samples were later centifuged for plasma and serum collection respectively, and stored at −70° C. until the time of analysis. Rats were killed by over-anesthetization and cardiac puncture and the kidneys were removed immediately, weighed, decapsulated and rinsed in PBS buffer. Sections of the kidneys were stored in 10% NBF for subsequent microscopic examinations and immunohistochemistry. The tail of each individual rat was cut, removed and stored in 50 mL conical tubes at −70° C.
Statistical analyses of data presented in this example and the following examples were first analyzed by ANOVA and post-hoc comparisons between group means were analyzed using unpaired Student's t test. A p value of less than 0.05 was considered statistically significant. Data are presented as means±SD.

STZ-Diabetic Rats [2] = experiment: Renal function parameters in STZ-diabetic rats (Example 3); format: in vivo, rat; conditions: for Plasma Creatine / Urinary Albumin / Urinary Albumin/Creatine Ratio: mean ± SD; for decrease of elevated plasma creatinine concentrations: diabetic rats
Procedure: as §1, §2
Urinary albumin, plasma creatinine concentration, and urinary albumin/creatine ratio (UA/Cr) were used as indicators of renal function.

STZ-Diabetic Rats [3] = experiment: Tail tendon collagen crosslinking, fluorescence (pepsin digestion) and acid solubility; format: in vivo, rat; conditions: diabetic rats compared with untreated diabetic animals
Procedure: Isolation and preparation of tail tendon collagen was performed according to Kochakian et al., Diabetes 45:1694-1700, 1996. The relative degree of crosslinking and AGE formation in collagen was assessed by pepsin digestion and acid solubility. Pepsin digestion was performed as described previously by Stefek et al., Biochim. Biophys. Acta 1502:398-404, 2000. Briefly, collagen samples of 10 mg from individual rats were digested with pepsin (50 μg/mL in 0.5 mol/l acetic acid) for 24 hours at 37° C. After digestion, the samples were centrifuged at 3000 rpm for 30 minutes at 4° C. and the clear supernatant containing the digested collagen was collected. One hundred microliter aliquots of the supernatant were mixed with 900 μL PBS buffer for measurement of the fluorescence of the sample at 365 nm excitation and 418 nm emission. The hydroxyproline content of the supernatant was calculated following acid hydrolysis using a microassay method according to known methods (Creemers et al., Biotechniques 22:656-658, 1997).
The acid solubility of tail tendon collagen was measured by a modification of the method outlined in Yang et al., Arch. Biochem. Biophys. 412:42-46, 2003. Briefly, samples of about 2 mg collagen were weighed and solubilized in 0.05 M acetic acid overnight at 4° C. The suspensions were centrifuged at 20,000 g 60 minutes at 4° C. and the supernatants and pellets were separated for analysis of hydroxyproline content following acid hydrolysis. Acid solubility was calculated as the percentage of hydroxyproline in the supernatant divided by the total hydroxyproline content in the pellet and the supernatant.

Human LDL = experiment: Cu++-mediated LDL oxidation, TBARS (Example 16); conditions: 250 μM compound, followed for 5 hours; control lag phase about 2 hours
Procedure: (§3) Human LDL was isolated from plasma of healthy donors by single vertical spin centrifugation (see Chung et al., Methods Enzymol. 128:181-209, 1986) and used within 24-48 hours of preparation. LDL (50 μg/mL) was incubated at 37° C. in 50 mM chelex-treated phosphate buffer, pH 7.4, alone or in the presence of 5 μM CuCl2 or 5 μM CuCl2 plus various concentrations of the LR compounds. After 5 hours of incubation, aliquots from each reaction mixture were removed for measurement of thiobarbituric acid-reacting substances (TBARS) as described in Satoh, Clin. Chim. Acta 90:37-43, 1978. Briefly, 250 μL of 20% trichloroacetic acid was added to 500 μL of sample aliquot, followed by 750 μL of 1% […]. The samples then were vortexed and incubated in a boiling water bath for 10 minutes. Upon cooling, the samples were centrifuged for 5 minutes at 5000 rpm. Absorbance of the supernatant was taken at 532 nm, and expressed as MDA equivalents using 1,1,3,3-tetramethoxypropane as standards. For fatty acid oxidation studies, linoleic acid (5#mM) was incubated alone or in the presence of 1 mM LR compound in […] phosphate buffer, pH 7.4, for 7 days at 37° C. Aliquots from each reaction mixture were withdrawn periodically for measurement of TBARS as described above.
Results are shown in FIG. 23A, where values are provided as means±SD of two independent experiments (n=4 for each treatment). In separate experiments, the time course for the oxidative modification fo LDL by Cu^++ in the presence of 250 μM compound was followed for 5 hours and aliquots for each time interval were assayed for TBARS. Values in FIG. 23B are means±SD of two independent experiments (n=4 per treatment).

[4] = Kinetics of linoleic acid oxidation, TBARS; conditions: 5 mM linoleic acid, 1 mM compound, pH 7.4, 7 days at 37° C.
Procedure: as §3
Aliquots were withdrawn periodically and assayed by the TBARS method as above. The MDA equivalent was estimated based on standards.

[5] = STZ-diabetic (D) rats, 50 mg/l in drinking water, 30 weeks
[6] = non-diabetic (ND) rats, 50 mg/l in drinking water, 30 weeks
[7] = STZ-diabetic (D) rats, 30 weeks
[8] = non-diabetic (ND) rats, 30 weeks
[9] = STZ-diabetic (D) rats, LR-90 50 mg/l in drinking water, 32 weeks
[10] = non-diabetic (ND) rats, LR-90 50 mg/l in drinking water, 32 weeks
[11] = STZ-diabetic (D) rats, LR-90, 32 weeks
[12] = non-diabetic (ND) rats, LR-90, 32 weeks

Compound | Body Weight (STZ-Diabetic Rats [1]; [5]) [g] | HbA1c (STZ-Diabetic Rats [1]; [5]) | Plasma Glucose (STZ-Diabetic Rats [1]; [5]) [mmol/L] | effect on plasma glucose and glycated hemoglobin (STZ-Diabetic Rats [1]; 50 mg/l in drinking water) | weight compared to the diabetic control rats (STZ-Diabetic Rats [1]; 50 mg/l in drinking water) | Body Weight (STZ-Diabetic Rats [1]; [6]) [g] | HbA1c (STZ-Diabetic Rats [1]; [6]) [%] | Plasma Glucose (STZ-Diabetic Rats [1]; [6]) [mmol/L] | Plasma Creatine (STZ-Diabetic Rats [2]; [7]) | Urinary Albumin (STZ-Diabetic Rats [2]; [7]) | Urinary Albumin/Creatine Ratio (STZ-Diabetic Rats [2]; [7]) | decrease of elevated plasma creatinine concentrations (STZ-Diabetic Rats [2]) [%] | Plasma Creatine (STZ-Diabetic Rats [2]; [8]) [mg/dL] | Urinary Albumin (STZ-Diabetic Rats [2]; [8]) [mg/24 hr] | Urinary Albumin/Creatine Ratio (STZ-Diabetic Rats [2]; [8]) | fluorescence and crosslinking of tail tendon collagen (pepsin digestion) (STZ-Diabetic Rats [3]) | time course of Cu++-mediated oxidation of LDL (Human LDL) | linoleic acid (LA) oxidation, MDA equivalents [4] | also measured
CC(C)(Oc1ccc(NC(=O)c2ccc3ccccc3c2)cc1)C(=O)O [LR-9, 4-(2-napthylcarboxamido) phenoxyisobutyric acid] | 288.0 ± 71.8 | 1.95 ± 0.22^b % | 27.1 ± 1.3 | did not affect | moderate increase in weight | 681.0 ± 9.3 | 0.90 ± 0.08 | 8.2 ± 0.9 | 1.79 ± 0.95^c mg/dl | 18.0 ± 9.1^c mg/24 hr | 1.36 ± 0.93^c | ~50 | 0.42 ± 0.02 | 4.8 ± 2.3 | 0.33 ± 0.13 | significant reduction | significantly inhibited the rate of oxidation after 2 hours | totally prevented LA oxidation | –
CC(Oc1cccc2cccnc12)C(=O)O (stereo not drawn) [LR-74, 2-(8-quinolinoxy) propionic acid] | 314.7 ± 53.0 | 2.10 ± 0.30% | 26.9 ± 1.5 | did not affect | moderate increase in weight | 744.0 ± 51.8 | 0.87 ± 0.12 | 6.8 ± 0.8 | 1.64 ± 1.07^c mg/dl | 14.3 ± 9.07^c mg/24 hr | 1.23 ± 0.60^c | ~50 | 0.42 ± 0.05 | 4.6 ± 2.4 | 0.30 ± 0.16 | significant reduction | no observable propagation phase | did not totally prevent the oxidation | –
methylene bis(4,4′-(2-chlorophenylureidophenoxyisobutyric acid) [LR-90] | – | – | – | did not affect | moderate increase in weight | – | – | – | – | – | – | ~50 | – | – | – | significant reduction | no observable propagation phase | totally prevented LA oxidation | Body Weight (STZ-Diabetic Rats [1]; [9]): 337.6 ± 26.6^c g; HbA1c (STZ-Diabetic Rats [1]; [9]): 3.3 ± 0.4%; Plasma Glucose (STZ-Diabetic Rats [1]; [9]): 28.9 ± 3.4 mmol/L; Body Weight (STZ-Diabetic Rats [1]; [10]): 723.0 ± 21.9 g; HbA1c (STZ-Diabetic Rats [1]; [10]): 1.5 ± 0.1%; Plasma Glucose (STZ-Diabetic Rats [1]; [10]): 6.8 ± 0.7 mmol/L; Plasma Creatine (STZ-Diabetic Rats [2]; [11]): 1.50 ± 0.53^c mg/dl; Urinary Albumin (STZ-Diabetic Rats [2]; [11]): 23.6 ± 4.5^c mg/24 hr; Urinary Albumin/Creatine Ratio (STZ-Diabetic Rats [2]; [11]): 1.57 ± 0.49^c; Plasma Creatine (STZ-Diabetic Rats [2]; [12]): 0.58 ± 0.07 mg/dL; Urinary Albumin (STZ-Diabetic Rats [2]; [12]): 8.9 ± 1.5 mg/24 hr; Urinary Albumin/Creatine Ratio (STZ-Diabetic Rats [2]; [12]): 0.57 ± 0.16
